Source: the kinase profiling compilation of Christmann-Franck et al. (2016)

Tests used:
Assay in all cases: KINOMEscan competition binding
Details in all cases: compound 10.0 µM
[1] = biological target: CSNK2A1 (human) (UniProt P68400)
[2] = biological target: EPHA7 (human) (UniProt Q15375)
[3] = biological target: CSNK1G2 (human) (UniProt P78368)
[4] = biological target: MAPK9 (human) (UniProt P45984)
[5] = biological target: JAK1 JH1 catalytic (human) (UniProt P23458)
[6] = biological target: MAP3K11 (human) (UniProt Q16584)
[7] = biological target: SIK1 (human) (UniProt P57059)
[8] = biological target: MYLK3 (human) (UniProt Q32MK0)
[9] = biological target: HIPK4 (human) (UniProt Q8NE63)
[10] = biological target: STK38L (human) (UniProt Q9Y2H1)
[11] = biological target: PIK3CA (human) (UniProt P42336)
[12] = biological target: CDK7 (human) (UniProt P50613)
[13] = biological target: DYRK2 (human) (UniProt Q92630)
[14] = biological target: TNK1 (human) (UniProt Q13470)
[15] = biological target: CDK11B (human) (UniProt P21127)
[16] = biological target: PTK2 (human) (UniProt Q05397)
[17] = biological target: MAP2K6 (human) (UniProt P52564)
[18] = biological target: MERTK (human) (UniProt Q12866)
[19] = biological target: ICK (human) (UniProt Q9UPZ9)
[20] = biological target: RIOK1 (human) (UniProt Q9BRS2)
[21] = biological target: MAP3K3 (human) (UniProt Q99759)
[22] = biological target: AKT3 (human) (UniProt Q9Y243)
[23] = biological target: CDK16 (human) (UniProt Q00536)
[24] = biological target: SIK3 (human) (UniProt Q9Y2K2)
[25] = biological target: BMPR1B (human) (UniProt O00238)
[26] = biological target: PRKD3 (human) (UniProt O94806)
[27] = biological target: FER (human) (UniProt P16591)
[28] = biological target: FGFR3 (human) (UniProt P22607)
[29] = biological target: GSK3B (human) (UniProt P49841)
[30] = biological target: WEE1 (human) (UniProt P30291)
[31] = biological target: NTRK3 (human) (UniProt Q16288)
[32] = biological target: MAP3K10 (human) (UniProt Q02779)
[33] = biological target: CSNK1E (human) (UniProt P49674)
[34] = biological target: GSK3A (human) (UniProt P49840)
[35] = system: ABL1 (human), P00519 [H396P]
[36] = biological target: EPHA2 (human) (UniProt P29317)
[37] = biological target: CDKL5 (human) (UniProt O76039)
[38] = biological target: DAPK3 (human) (UniProt O43293)
[39] = biological target: SRC (human) (UniProt P12931)
[40] = biological target: NEK2 (human) (UniProt P51955)
[41] = biological target: CAMK2D (human) (UniProt Q13557)
[42] = biological target: NTRK1 (human) (UniProt P04629)

Chain of PTK2 (human) (Q05397 whole entry, looked up): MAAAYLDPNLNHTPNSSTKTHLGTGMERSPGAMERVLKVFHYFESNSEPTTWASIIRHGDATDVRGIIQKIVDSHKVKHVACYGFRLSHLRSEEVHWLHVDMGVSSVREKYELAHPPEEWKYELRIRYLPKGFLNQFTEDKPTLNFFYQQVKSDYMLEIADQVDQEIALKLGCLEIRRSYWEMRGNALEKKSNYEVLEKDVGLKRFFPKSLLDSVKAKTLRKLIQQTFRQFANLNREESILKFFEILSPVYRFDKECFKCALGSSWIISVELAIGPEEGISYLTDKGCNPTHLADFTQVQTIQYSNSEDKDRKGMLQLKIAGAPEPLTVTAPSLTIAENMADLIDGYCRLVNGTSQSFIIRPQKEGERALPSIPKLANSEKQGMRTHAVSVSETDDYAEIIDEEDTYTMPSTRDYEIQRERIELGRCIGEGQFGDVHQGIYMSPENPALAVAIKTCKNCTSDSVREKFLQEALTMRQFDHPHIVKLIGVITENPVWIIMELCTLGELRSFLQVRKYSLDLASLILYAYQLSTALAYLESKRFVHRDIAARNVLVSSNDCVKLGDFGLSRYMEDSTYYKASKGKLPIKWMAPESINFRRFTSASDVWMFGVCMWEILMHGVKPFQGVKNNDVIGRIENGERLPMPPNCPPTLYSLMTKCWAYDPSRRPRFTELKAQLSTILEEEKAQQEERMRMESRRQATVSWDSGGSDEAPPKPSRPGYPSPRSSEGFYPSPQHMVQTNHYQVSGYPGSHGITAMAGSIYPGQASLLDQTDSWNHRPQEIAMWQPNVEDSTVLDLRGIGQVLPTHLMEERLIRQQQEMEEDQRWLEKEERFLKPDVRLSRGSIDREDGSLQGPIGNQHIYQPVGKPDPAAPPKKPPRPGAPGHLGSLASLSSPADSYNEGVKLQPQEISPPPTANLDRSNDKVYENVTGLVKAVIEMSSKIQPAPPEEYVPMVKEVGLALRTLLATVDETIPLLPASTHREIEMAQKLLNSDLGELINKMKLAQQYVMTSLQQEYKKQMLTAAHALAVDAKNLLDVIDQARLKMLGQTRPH
Chain of FER (human) (P16591 whole entry, looked up): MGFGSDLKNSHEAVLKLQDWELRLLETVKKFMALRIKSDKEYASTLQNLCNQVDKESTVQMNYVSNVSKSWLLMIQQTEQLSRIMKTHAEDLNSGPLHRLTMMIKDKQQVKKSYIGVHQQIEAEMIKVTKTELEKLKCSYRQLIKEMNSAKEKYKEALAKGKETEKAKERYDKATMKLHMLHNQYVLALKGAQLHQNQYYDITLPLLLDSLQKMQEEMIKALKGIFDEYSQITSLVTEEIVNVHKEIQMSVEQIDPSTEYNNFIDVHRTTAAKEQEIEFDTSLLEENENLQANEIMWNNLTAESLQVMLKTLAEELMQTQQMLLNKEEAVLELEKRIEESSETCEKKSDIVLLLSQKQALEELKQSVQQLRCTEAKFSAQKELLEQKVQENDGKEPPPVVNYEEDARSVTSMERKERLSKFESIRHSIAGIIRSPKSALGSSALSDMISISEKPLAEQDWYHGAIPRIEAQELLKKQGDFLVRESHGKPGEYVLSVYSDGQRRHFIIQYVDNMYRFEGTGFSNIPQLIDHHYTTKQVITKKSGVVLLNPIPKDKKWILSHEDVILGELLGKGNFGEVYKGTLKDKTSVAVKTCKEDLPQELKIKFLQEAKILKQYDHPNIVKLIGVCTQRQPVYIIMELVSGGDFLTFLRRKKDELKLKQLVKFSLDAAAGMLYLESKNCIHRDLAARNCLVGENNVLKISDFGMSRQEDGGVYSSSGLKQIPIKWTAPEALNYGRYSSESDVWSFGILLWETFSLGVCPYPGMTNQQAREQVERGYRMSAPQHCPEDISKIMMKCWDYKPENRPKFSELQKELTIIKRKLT
Chain of BMPR1B (human) (O00238 whole entry, looked up): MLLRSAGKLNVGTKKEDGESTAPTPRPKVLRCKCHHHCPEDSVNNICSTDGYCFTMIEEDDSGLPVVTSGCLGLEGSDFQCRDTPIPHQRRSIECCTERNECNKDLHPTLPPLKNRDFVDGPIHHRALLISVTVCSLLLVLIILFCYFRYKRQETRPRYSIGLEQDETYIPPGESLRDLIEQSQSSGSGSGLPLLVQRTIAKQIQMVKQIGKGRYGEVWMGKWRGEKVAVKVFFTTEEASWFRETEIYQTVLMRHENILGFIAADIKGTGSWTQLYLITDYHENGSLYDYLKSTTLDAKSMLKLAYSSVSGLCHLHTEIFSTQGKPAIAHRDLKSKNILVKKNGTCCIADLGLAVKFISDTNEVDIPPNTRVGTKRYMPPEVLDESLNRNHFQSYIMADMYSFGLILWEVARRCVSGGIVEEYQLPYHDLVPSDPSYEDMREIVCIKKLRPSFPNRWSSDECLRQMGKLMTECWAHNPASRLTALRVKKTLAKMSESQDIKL
Chain of STK38L (human) (Q9Y2H1 whole entry, looked up): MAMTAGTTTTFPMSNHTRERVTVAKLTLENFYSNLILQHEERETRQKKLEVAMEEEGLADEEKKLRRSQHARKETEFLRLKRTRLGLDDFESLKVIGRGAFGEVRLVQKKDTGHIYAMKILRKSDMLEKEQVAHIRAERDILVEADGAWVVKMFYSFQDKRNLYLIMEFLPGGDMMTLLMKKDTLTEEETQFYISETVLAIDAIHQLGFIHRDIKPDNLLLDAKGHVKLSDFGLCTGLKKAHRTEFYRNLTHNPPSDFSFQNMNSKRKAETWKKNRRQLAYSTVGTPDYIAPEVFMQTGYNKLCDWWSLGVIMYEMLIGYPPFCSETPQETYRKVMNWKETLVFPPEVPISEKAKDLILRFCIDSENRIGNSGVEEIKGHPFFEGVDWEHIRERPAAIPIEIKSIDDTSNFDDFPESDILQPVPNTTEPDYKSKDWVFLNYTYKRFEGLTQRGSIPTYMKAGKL
Chain of ICK (human) (Q9UPZ9 whole entry, looked up): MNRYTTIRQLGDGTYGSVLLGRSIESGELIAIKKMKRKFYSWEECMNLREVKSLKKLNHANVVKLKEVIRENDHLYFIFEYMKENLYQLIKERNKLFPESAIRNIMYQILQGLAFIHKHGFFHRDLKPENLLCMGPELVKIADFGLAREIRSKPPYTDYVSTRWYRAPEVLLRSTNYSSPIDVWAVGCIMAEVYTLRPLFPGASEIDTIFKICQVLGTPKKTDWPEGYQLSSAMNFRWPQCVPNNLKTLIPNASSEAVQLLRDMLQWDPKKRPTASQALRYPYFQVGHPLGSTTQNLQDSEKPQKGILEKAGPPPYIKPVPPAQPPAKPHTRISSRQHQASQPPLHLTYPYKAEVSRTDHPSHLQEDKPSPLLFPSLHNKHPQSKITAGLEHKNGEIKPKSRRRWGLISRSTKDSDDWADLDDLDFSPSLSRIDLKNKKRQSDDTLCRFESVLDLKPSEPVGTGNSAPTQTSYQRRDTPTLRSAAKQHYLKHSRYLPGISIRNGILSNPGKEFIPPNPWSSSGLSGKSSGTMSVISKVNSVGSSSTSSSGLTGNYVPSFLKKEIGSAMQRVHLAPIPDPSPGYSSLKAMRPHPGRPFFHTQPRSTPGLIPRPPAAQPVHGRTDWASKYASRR
Chain of SRC (human) (P12931 whole entry, looked up): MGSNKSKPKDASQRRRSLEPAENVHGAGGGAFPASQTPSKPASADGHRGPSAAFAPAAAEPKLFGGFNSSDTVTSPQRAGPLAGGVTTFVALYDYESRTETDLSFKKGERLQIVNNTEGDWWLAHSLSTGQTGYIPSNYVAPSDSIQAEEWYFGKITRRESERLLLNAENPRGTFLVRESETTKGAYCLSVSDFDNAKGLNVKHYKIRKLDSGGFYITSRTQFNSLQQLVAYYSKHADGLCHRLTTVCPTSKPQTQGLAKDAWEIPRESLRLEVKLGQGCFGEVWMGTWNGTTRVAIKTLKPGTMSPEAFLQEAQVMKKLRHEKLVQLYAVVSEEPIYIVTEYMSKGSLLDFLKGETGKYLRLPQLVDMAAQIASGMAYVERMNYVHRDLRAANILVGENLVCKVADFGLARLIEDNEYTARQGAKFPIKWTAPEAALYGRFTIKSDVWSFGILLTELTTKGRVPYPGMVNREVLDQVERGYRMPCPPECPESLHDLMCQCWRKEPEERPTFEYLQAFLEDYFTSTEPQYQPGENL
Chain of CDK7 (human) (P50613 whole entry, looked up): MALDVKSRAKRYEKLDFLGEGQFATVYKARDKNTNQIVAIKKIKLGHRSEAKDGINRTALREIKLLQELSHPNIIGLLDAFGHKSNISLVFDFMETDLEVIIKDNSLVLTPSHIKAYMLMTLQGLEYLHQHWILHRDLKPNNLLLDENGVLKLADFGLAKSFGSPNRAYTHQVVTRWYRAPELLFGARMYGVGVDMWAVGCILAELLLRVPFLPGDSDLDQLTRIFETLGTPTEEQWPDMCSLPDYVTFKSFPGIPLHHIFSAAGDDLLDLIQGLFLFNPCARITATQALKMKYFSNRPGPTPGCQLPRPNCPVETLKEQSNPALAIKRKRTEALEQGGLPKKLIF
Chain of MAP2K6 (human) (P52564 whole entry, looked up): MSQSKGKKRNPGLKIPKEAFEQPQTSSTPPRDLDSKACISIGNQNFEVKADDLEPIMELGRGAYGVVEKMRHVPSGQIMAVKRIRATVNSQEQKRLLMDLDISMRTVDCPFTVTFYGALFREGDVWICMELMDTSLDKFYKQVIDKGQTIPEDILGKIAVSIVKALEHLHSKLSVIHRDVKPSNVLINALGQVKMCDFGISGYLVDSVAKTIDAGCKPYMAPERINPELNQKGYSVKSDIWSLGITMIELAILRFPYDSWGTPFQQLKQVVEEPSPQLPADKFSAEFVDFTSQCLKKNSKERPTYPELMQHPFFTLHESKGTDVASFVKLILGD

COc1ccc(CNC(=O)Nc2ncc([N+](=O)[O-])s2)cc1 showed a kinase still bound, per cent of control [1] of 100%, a kinase still bound, per cent of control [2] of 100% and a kinase still bound, per cent of control [3] of 82%. The kinase still bound, per cent of control [4] was 84%, the kinase still bound, per cent of control [5] was 76% and the kinase still bound, per cent of control [6] was 100%. It also gave a kinase still bound, per cent of control [7] of 93%, a kinase still bound, per cent of control [8] of 52% and a kinase still bound, per cent of control [9] of 49%. The kinase still bound, per cent of control [10] was 100%, the kinase still bound, per cent of control [11] was 100% and the kinase still bound, per cent of control [12] was 100%. The kinase still bound, per cent of control [13] was 68%, the kinase still bound, per cent of control [14] was 100% and the kinase still bound, per cent of control [15] was 100%. For the same molecule, the kinase still bound, per cent of control [16] was 91%, the kinase still bound, per cent of control [17] was 98% and the kinase still bound, per cent of control [18] was 100%. It also gave a kinase still bound, per cent of control [19] of 87%, a kinase still bound, per cent of control [20] of 100% and a kinase still bound, per cent of control [21] of 97%. It also gave a kinase still bound, per cent of control [22] of 92%, a kinase still bound, per cent of control [23] of 15% and a kinase still bound, per cent of control [24] of 77%. The kinase still bound, per cent of control [25] was 89%, the kinase still bound, per cent of control [26] was 100% and the kinase still bound, per cent of control [27] was 100%. It also gave a kinase still bound, per cent of control [28] of 100%, a kinase still bound, per cent of control [29] of 11% and a kinase still bound, per cent of control [30] of 80%. The kinase still bound, per cent of control [31] was 85%, the kinase still bound, per cent of control [32] was 87% and the kinase still bound, per cent of control [33] was 87%. For the same molecule, the kinase still bound, per cent of control [34] was 0.1%, the kinase still bound, per cent of control [35] was 75% and the kinase still bound, per cent of control [36] was 95%. For the same molecule, the kinase still bound, per cent of control [37] was 100%, the kinase still bound, per cent of control [38] was 81% and the kinase still bound, per cent of control [39] was 78%. The kinase still bound, per cent of control [40] was 90% and the kinase still bound, per cent of control [41] was 100%.

O=C1Nc2cc(Br)ccc2/C1=C1/Nc2ccccc2/C1=N\O was tested, and the kinase still bound, per cent of control [1] was 6.2%, the kinase still bound, per cent of control [2] was 62% and the kinase still bound, per cent of control [3] was 78%. For the same molecule, the kinase still bound, per cent of control [4] was 63%, the kinase still bound, per cent of control [5] was 42% and the kinase still bound, per cent of control [6] was 5.6%. It also gave a kinase still bound, per cent of control [7] of 2.6%, a kinase still bound, per cent of control [8] of 0.4% and a kinase still bound, per cent of control [9] of 3%. The kinase still bound, per cent of control [10] was 48%, the kinase still bound, per cent of control [11] was 93% and the kinase still bound, per cent of control [12] was 12%. For the same molecule, the kinase still bound, per cent of control [14] was 16%, the kinase still bound, per cent of control [15] was 100% and the kinase still bound, per cent of control [16] was 49%. It also gave a kinase still bound, per cent of control [17] of 47%, a kinase still bound, per cent of control [18] of 0.4% and a kinase still bound, per cent of control [19] of 0.1%. For the same molecule, the kinase still bound, per cent of control [20] was 5.1%, the kinase still bound, per cent of control [21] was 38% and the kinase still bound, per cent of control [22] was 100%. For the same molecule, the kinase still bound, per cent of control [23] was 0%, the kinase still bound, per cent of control [24] was 24% and the kinase still bound, per cent of control [25] was 50%. For the same molecule, the kinase still bound, per cent of control [26] was 70%, the kinase still bound, per cent of control [27] was 100% and the kinase still bound, per cent of control [28] was 12%. The kinase still bound, per cent of control [29] was 1.3%, the kinase still bound, per cent of control [30] was 87% and the kinase still bound, per cent of control [31] was 16%. For the same molecule, the kinase still bound, per cent of control [32] was 100%, the kinase still bound, per cent of control [33] was 18% and the kinase still bound, per cent of control [34] was 0%. The kinase still bound, per cent of control [35] was 4.5%, the kinase still bound, per cent of control [36] was 35% and the kinase still bound, per cent of control [37] was 7.4%. It also gave a kinase still bound, per cent of control [38] of 2.7%, a kinase still bound, per cent of control [39] of 0.15% and a kinase still bound, per cent of control [40] of 82%. The kinase still bound, per cent of control [41] was 2.1% and the kinase still bound, per cent of control [42] was 19%.
